From patent US8334002B2, “Cinnamaldehyde—allicin compositions and their method of use” (Valent BioSciences Corporation, priority 2008, dated 2012)

Key:
[1] = system: Root Knot Nematodes (Meloidogyne incognita); assay: Greenhouse pot test, root galling after inoculation with second stage juveniles; assay type: in vivo; conditions: 300 ppm total a.i.
Source text: Procedure for Greenhouse pot Tests:
2″×2″ plastic pots are filled with 140 to 150 g of plant growth medium that is made up of non-pasteurized sand and soil at 2:1 ratio. Three cucumber seeds (variety Straight Eight; in the case of tomatoes, variety Rutgers) are planted at uniform depth and watered. Upon emergence, two uniform seedlings are allowed to grow in each pot by removing the third seedling. Seedlings are selected when the first true leaf is emerged, generally 5 to 7 days after planting. Each pot is treated with test material diluted in 25 mL of water that is just sufficient to wet the soil but not drip. Except for untreated control, all test pots are inoculated with about 800 second stage juveniles of Root Knot Nematodes (Meloidogyne incognita). Plants are watered as needed. Twelve to fourteen days after the pots are inoculated, the plants are carefully removed from the pots, the roots are gently washed free of soil and placed on paper towels, and data on fresh weight of shoots, roots, number of galls/treatment and/or per gram of root are taken.

nematodes = conditions: at concentrations of 300 ppm; cited from earlier work
[2] = cucumber, preferred formulations of Table 2

| Structure (SMILES) | % gall reduction in relation to M.i Control [1, 2] [%] | Average gall rating (0-9) [1, 2] | % gall reduction in relation to M.i Control ([1]; prototype formulations of Table 1) [%] | Average gall rating (0-9) ([1]; prototype formulations of Table 1, 0 = no galls, 9 = heavy galling) | nematicidal activity (nematodes) |
| --- | --- | --- | --- | --- | --- |
| C=CCS[S+]([O-])CC=C (stereo not shown) [Allicin, allicin] | 41.7 | 5.25 | 72.7 | 2.25 | – |
| O=CC=Cc1ccccc1 [Cinnamaldehyde, cinnamaldehyde] | 19.4 | 7.25 | – | – | only marginal |
